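Briefly, cells in 96-well plates were exposed to five compound concentrations for 48 h, and endpoints were estimated by linear interpolation. The concentration for 50% growth inhibition is given as GI50. The concentration for full growth arrest is given as TGI.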
Experiments:
Experiment in all cases: NCI-60 cell line screen, 48 h
[1] = test system: IGROV1 ovarian
[2] = test system: CCRF-CEM leukemia
[3] = test system: UACC-257 melanoma
[4] = test system: HCT-116 colon
[5] = test system: NCI-H522 lung
[6] = test system: SF-268 CNS
[7] = test system: SK-MEL-28 melanoma
[8] = test system: NCI-H460 lung
[9] = test system: NCI-H23 lung
[10] = test system: OVCAR-5 ovarian
[11] = test system: HOP-92 NSCLC
[12] = test system: SK-MEL-2 melanoma
[13] = test system: T-47D breast
[14] = test system: HL-60(TB) leukemia
[15] = test system: K-562 leukemia
[16] = test system: DU-145 prostate
[17] = test system: RXF 393 renal
[18] = test system: BT-549 breast
[19] = test system: OVCAR-3 ovarian
[20] = test system: OVCAR-4 ovarian
[21] = test system: UO-31 renal
[22] = test system: RPMI-8226 leukemia
[23] = test system: KM12 colon
[24] = test system: SW-620 colon
[25] = test system: UACC-62 melanoma
[26] = test system: 786-0 renal
[27] = test system: HS 578T breast
[28] = test system: SF-539 CNS
[29] = test system: SK-MEL-5 melanoma
[30] = test system: CAKI-1 renal
[31] = test system: MCF7 breast
[32] = test system: SF-295 CNS
[33] = test system: MDA-MB-231 breast
[34] = test system: OVCAR-8 ovarian
[35] = test system: HCC-2998 colon
[36] = test system: U251 CNS
[37] = test system: SNB-75 CNS
[38] = test system: SK-OV-3 ovarian
[39] = test system: MOLT-4 leukemia
[40] = test system: ACHN renal
[41] = test system: SNB-19 CNS
[42] = test system: MDA-MB-435
[43] = test system: M14 melanoma
[44] = test system: MALME-3M melanoma
[45] = test system: SN12C renal
[46] = test system: A549 NSCLC
[47] = test system: PC-3 prostate
[48] = test system: TK-10 renal
[49] = test system: NCI-H226 lung
[50] = test system: NCI/ADR-RES ovarian
[51] = test system: COLO 205 colon
[52] = test system: HCT-15 colon
[53] = test system: LOX IMVI melanoma
[54] = test system: A498 renal
[55] = test system: HOP-62 NSCLC
[56] = test system: EKVX NSCLC
[57] = test system: SR leukemia
[58] = test system: HT29 colon

With `COC1C=COC2(C)Oc3c(C)c(O)c4c(O)c(c(C5SCCS5)c(O)c4c3C2=O)NC(=O)C(C)=C/C=C\C(C)C2OC(C)(C)OC(C2C)C(C)C(OC(C)=O)C1C` (centres undefined) as the molecule, how does the TGI [1] read?
The TGI was 30.7 µM.

And the TGI [2]?
The TGI was > 100 µM.

What about the TGI [3] of the same molecule?
The TGI was 7.89 µM.

And the TGI [4]?
Its TGI is > 100 µM.

And the TGI [5]?
The TGI was 23 µM.

What about the TGI [6] of the same molecule?
Its TGI is 29.3 µM.

And the TGI [7]?
The TGI was > 100 µM.

What about the TGI [8] of the same molecule?
The TGI was 63.2 µM.

And the TGI [9]?
Its TGI is 80.9 µM.

What about the TGI [10] of the same molecule?
The TGI was > 100 µM.

What about the TGI [11] of the same molecule?
Its TGI is 24.9 µM.

What about the TGI [12] of the same molecule?
Its TGI is 23.2 µM.

What about the TGI [13] of the same molecule?
Its TGI is > 100 µM.

What about the TGI [14] of the same molecule?
The TGI was 17.4 µM.

What about the TGI [15] of the same molecule?
The TGI was > 100 µM.

What about the TGI [16] of the same molecule?
Its TGI is 59.8 µM.

What about the TGI [17] of the same molecule?
The TGI was 30 µM.

What about the TGI [18] of the same molecule?
Its TGI is 9.26 µM.

And the TGI [19]?
Its TGI is > 100 µM.

What about the TGI [20] of the same molecule?
The TGI was 54.7 µM.

And the TGI [21]?
The TGI was 32.6 µM.

And the TGI [22]?
The TGI was > 100 µM.

And the TGI [23]?
The TGI was > 100 µM.

What about the TGI [24] of the same molecule?
The TGI was > 100 µM.

What about the TGI [25] of the same molecule?
Its TGI is 15 µM.

What about the TGI [26] of the same molecule?
Its TGI is 44 µM.

What about the TGI [27] of the same molecule?
The TGI was 63.3 µM.

And the TGI [28]?
The TGI was 86.4 µM.

And the TGI [29]?
The TGI was 15.5 µM.

What about the TGI [30] of the same molecule?
The TGI was 27.7 µM.

What about the TGI [31] of the same molecule?
The TGI was 7.77 µM.

And the TGI [32]?
The TGI was 28.7 µM.

What about the TGI [33] of the same molecule?
Its TGI is 45.7 µM.

What about the TGI [34] of the same molecule?
The TGI was 28.5 µM.

What about the TGI [35] of the same molecule?
The TGI was 20.2 µM.

What about the TGI [36] of the same molecule?
The TGI was > 100 µM.

What about the TGI [37] of the same molecule?
Its TGI is > 100 µM.

And the TGI [38]?
The TGI was > 100 µM.

And the TGI [39]?
The TGI was > 100 µM.

And the TGI [40]?
Its TGI is 6.53 µM.

What about the TGI [41] of the same molecule?
Its TGI is > 100 µM.

What about the TGI [42] of the same molecule?
The TGI was 47.9 µM.

And the TGI [43]?
The TGI was > 100 µM.

And the TGI [44]?
The TGI was 36.5 µM.

And the TGI [45]?
Its TGI is 16.6 µM.

What about the TGI [46] of the same molecule?
Its TGI is 22.6 µM.

What about the TGI [47] of the same molecule?
Its TGI is > 100 µM.

And the TGI [48]?
The TGI was 24.8 µM.

What about the TGI [49] of the same molecule?
Its TGI is 22.1 µM.

And the TGI [50]?
Its TGI is > 100 µM.

What about the TGI [51] of the same molecule?
The TGI was > 100 µM.

And the TGI [52]?
The TGI was 38.4 µM.

What about the TGI [53] of the same molecule?
The TGI was 28.3 µM.

And the TGI [54]?
The TGI was 29.3 µM.

What about the TGI [55] of the same molecule?
Its TGI is 74.4 µM.

Which results are given for `CC(=O)N[C@H]1CSSC[C@@H](C(N)=O)NC(=O)[C@H](C(C)C)NC(=O)[C@H](C)NC(=O)[C@H](Cc2cnc[nH]2)NC1=O`?
GI50 [1]: > 100 µM; TGI [1]: > 100 µM; GI50 [2]: 29.1 µM; TGI [2]: > 100 µM; GI50 [3]: > 100 µM; TGI [3]: > 100 µM; GI50 [5]: > 100 µM; TGI [5]: > 100 µM; GI50 [6]: > 100 µM; TGI [6]: > 100 µM; GI50 [7]: > 100 µM; TGI [7]: > 100 µM; GI50 [8]: > 100 µM; TGI [8]: > 100 µM; GI50 [9]: > 100 µM; TGI [9]: > 100 µM; GI50 [10]: > 100 µM; TGI [10]: > 100 µM; GI50 [11]: > 100 µM; TGI [11]: > 100 µM; GI50 [12]: > 100 µM; TGI [12]: > 100 µM; GI50 [13]: > 100 µM; TGI [13]: > 100 µM; GI50 [56]: > 100 µM; TGI [56]: > 100 µM; GI50 [14]: > 100 µM; TGI [14]: > 100 µM; GI50 [15]: > 100 µM; TGI [15]: > 100 µM; GI50 [16]: > 100 µM; TGI [16]: > 100 µM; GI50 [17]: > 100 µM; TGI [17]: > 100 µM; GI50 [18]: > 100 µM; TGI [18]: > 100 µM; GI50 [19]: > 100 µM; TGI [19]: > 100 µM; GI50 [20]: > 100 µM; TGI [20]: > 100 µM; GI50 [21]: > 100 µM; TGI [21]: > 100 µM; GI50 [22]: > 100 µM; TGI [22]: > 100 µM; GI50 [23]: > 100 µM; TGI [23]: > 100 µM; GI50 [57]: > 100 µM; TGI [57]: > 100 µM; GI50 [25]: > 100 µM; TGI [25]: > 100 µM; GI50 [26]: > 100 µM; TGI [26]: > 100 µM; GI50 [28]: > 100 µM; TGI [28]: > 100 µM; GI50 [29]: > 100 µM; TGI [29]: > 100 µM; GI50 [30]: > 100 µM; TGI [30]: > 100 µM; GI50 [32]: > 100 µM; TGI [32]: > 100 µM; GI50 [33]: > 100 µM; TGI [33]: > 100 µM; GI50 [34]: > 100 µM; TGI [34]: > 100 µM; GI50 [35]: > 100 µM; TGI [35]: > 100 µM; GI50 [58]: > 100 µM; TGI [58]: > 100 µM; GI50 [36]: > 100 µM; TGI [36]: > 100 µM; GI50 [38]: > 100 µM; TGI [38]: > 100 µM; GI50 [39]: > 100 µM; TGI [39]: > 100 µM; GI50 [40]: > 100 µM; TGI [40]: > 100 µM; GI50 [41]: > 100 µM; TGI [41]: > 100 µM; GI50 [42]: > 100 µM; TGI [42]: > 100 µM; GI50 [43]: > 100 µM; TGI [43]: > 100 µM; GI50 [44]: > 100 µM; TGI [44]: > 100 µM; GI50 [45]: > 100 µM; TGI [45]: > 100 µM; GI50 [46]: > 100 µM; TGI [46]: > 100 µM; GI50 [47]: > 100 µM; TGI [47]: > 100 µM; GI50 [48]: > 100 µM; TGI [48]: > 100 µM; GI50 [49]: > 100 µM; TGI [49]: > 100 µM; GI50 [50]: > 100 µM; TGI [50]: > 100 µM; GI50 [51]: > 100 µM; TGI [51]: > 100 µM; GI50 [52]: > 100 µM; TGI [52]: > 100 µM; GI50 [53]: > 100 µM; TGI [53]: > 100 µM; GI50 [55]: > 100 µM; TGI [55]: > 100 µM
